From ChEMBL document CHEMBL4725412, “Augmenting the Activity of Macrolide Adjuvants against Acinetobacter baumannii” (2020)
Calls of active or inactive are those of the source. The calls are words filed in the database; no cut-off is given here.

Experiments:
[1] = test system: Acinetobacter baumannii; experiment: Potentiation of clarithromycin-induced antibacterial activity against Acinetobacter baumannii AB5075 assessed as clarithromycin MIC at 10 uM incubated for 16 hrs by broth microdilution method (reference value: […] ug/ml); type: functional
[2] = test system: Acinetobacter baumannii; experiment: Potentiation of clarithromycin-induced antibacterial activity against Acinetobacter baumannii AB5075 assessed as clarithromycin MIC at 20 uM incubated for 16 hrs by broth microdilution method (reference value: […] ug/ml); type: functional
[3] = test system: Acinetobacter baumannii; experiment: Potentiation of Colistin-induced Acinetobacter baumannii AB5075 assessed as Colistin MIC at 30 uM by broth microdilution method; type: functional, organism-based
[4] = test system: Acinetobacter baumannii; experiment: Antibacterial activity against Acinetobacter baumannii AB5075 assessed as reduction in microbial growth incubated for 16 hrs by broth microdilution method; type: functional
[5] = test system: Acinetobacter baumannii; experiment: Potentiation of clarithromycin-induced antibacterial activity against Acinetobacter baumannii AB5075 assessed as fold reduction in clarithromycin MIC at 30 uM incubated for 16 hrs in presence of clarithromycin by broth microdilution method; type: functional
[6] = test system: Acinetobacter baumannii; experiment: Potentiation of clarithromycin-induced antibacterial activity against Acinetobacter baumannii AB5075 assessed as clarithromycin MIC at […] incubated for 16 hrs by broth microdilution method (reference value: […] ug/ml); type: functional; conditions: dose 30 µM
[7] = test system: Acinetobacter baumannii; experiment: Potentiation of clarithromycin-induced antibacterial activity against Acinetobacter baumannii AB5075 assessed as fold reduction in clarithromycin MIC at 20 uM incubated for 16 hrs in presence of clarithromycin by broth microdilution method; type: functional
[8] = test system: Acinetobacter baumannii; experiment: Potentiation of clarithromycin-induced antibacterial activity against Acinetobacter baumannii AB5075 assessed as fold reduction in clarithromycin MIC at 10 uM incubated for 16 hrs in presence of clarithromycin by broth microdilution method; type: functional
[9] = test system: Acinetobacter baumannii; experiment: Potentiation of clarithromycin-induced antibacterial activity against Acinetobacter baumannii AB5075 assessed as clarithromycin MIC at 15 uM incubated for 16 hrs by broth microdilution method (reference value: […] ug/ml); type: functional
[10] = test system: Acinetobacter baumannii; experiment: Potentiation of clarithromycin-induced antibacterial activity against Acinetobacter baumannii AB5075 assessed as fold reduction in clarithromycin MIC at 7.5 uM incubated for 16 hrs in presence of clarithromycin broth microdilution method; type: functional
[11] = test system: Acinetobacter baumannii; experiment: Potentiation of clarithromycin-induced antibacterial activity against Acinetobacter baumannii AB5075 assessed as clarithromycin MIC at 7.5 uM incubated for 16 hrs by broth microdilution method (reference value: […] ug/ml); type: functional
[12] = test system: Acinetobacter baumannii; experiment: Potentiation of clarithromycin-induced antibacterial activity against Acinetobacter baumannii AB5075 assessed as clarithromycin MIC at 5 uM incubated for 16 hrs by broth microdilution method (reference value: […] ug/ml); type: functional
[13] = test system: Acinetobacter baumannii; experiment: Potentiation of clarithromycin-induced antibacterial activity against Acinetobacter baumannii AB5075 assessed as fold reduction in clarithromycin MIC at 5 uM incubated for 16 hrs in presence of clarithromycin by broth microdilution method; type: functional
[14] = test system: Acinetobacter baumannii; experiment: Potentiation of clarithromycin-induced antibacterial activity against Acinetobacter baumannii AB5075 assessed as clarithromycin MIC at 25 uM incubated for 16 hrs by broth microdilution method (reference value: […] ug/ml); type: functional
[15] = test system: Acinetobacter baumannii; experiment: Antibacterial activity against Acinetobacter baumannii AB5075 assessed as reduction in microbial growth after 2 days by broth microdilution method; type: functional; conditions: AB5075, 48 h, time 2 day
[16] = test system: Acinetobacter baumannii; experiment: Antibacterial activity against Acinetobacter baumannii AB5075 assessed as reduction in microbial growth after 6 days by broth microdilution method; type: functional; conditions: AB5075, 144 h, time 6 day
[17] = test system: Acinetobacter baumannii; experiment: Antibacterial activity against Acinetobacter baumannii AB5075 assessed as reduction in microbial growth after 9 days by broth microdilution method; type: functional; conditions: AB5075, 216 h, time 9 day
[18] = test system: Acinetobacter baumannii; experiment: Potentiation of clarithromycin-induced antibacterial activity against Acinetobacter baumannii AB5075 assessed as assessed as fold reduction in clarithromycin MIC at 10 uM by CLSI based microdilution method; type: functional
[19] = test system: Acinetobacter baumannii; experiment: Antibacterial activity against Acinetobacter baumannii AB5075 assessed as reduction in microbial growth by CLSI based microdilution method; type: functional
[20] = test system: Acinetobacter baumannii; experiment: Potentiation of clarithromycin-induced antibacterial activity against Acinetobacter baumannii AB5075 assessed as clarithromycin MIC at 10 uM by CLSI based microdilution method (reference value: […] ug/ml); type: functional
[21] = test system: Acinetobacter baumannii; experiment: Potentiation of clarithromycin-induced antibacterial activity against Acinetobacter baumannii AB5075 assessed as assessed as fold reduction in clarithromycin MIC at 30 uM by CLSI based microdilution method; type: functional
[22] = test system: Acinetobacter baumannii; experiment: Potentiation of clarithromycin-induced antibacterial activity against Acinetobacter baumannii AB5075 assessed as clarithromycin MIC at 30 uM by CLSI based microdilution method (reference value: […] ug/ml); type: functional

Structure (SMILES)	MIC [1]	MIC [2]	MIC [4]	fold change (FC) [5]	also measured
Nc1ncc(-c2ccc(NC(=O)c3ccc(Br)cc3F)cc2)[nH]1	32 µM	16 µM	≥ 200 µM	–	Activity [3]: inactive
Nc1ncc(-c2ccc(NC(=O)c3cc(I)c(I)c(I)c3)cc2)[nH]1	–	–	≥ 200 µM	–	–
Nc1nc(-c2ccc(NC(=O)c3ccc(Cl)c(C(F)(F)F)c3)cc2)c[nH]1	2 µM	–	100 µM	–	–
Cl.Nc1nc(-c2ccc(NC(=O)c3cc(Cl)cc(Cl)c3)c(Cl)c2)c[nH]1	–	–	> 200 µM	2	MIC [6]: 8 µg/mL
Nc1nc(-c2ccc(NC(=O)c3ccc(Cl)cc3)cc2)c[nH]1	16 µM	4 µM	≥ 200 µM	–	–
COc1cc(-c2c[nH]c(N)n2)ccc1NC(=O)c1cc(Cl)cc(Cl)c1.Cl	16 µg/mL	4 µg/mL	100 µM	64	fold change (FC) [7]: 8; MIC [6]: 0.5 µg/mL; fold change (FC) [8]: 2
Nc1nc(-c2ccc(NC(=O)c3ccc(Br)cc3)cc2)c[nH]1	–	–	≥ 200 µM	–	Activity [3]: inactive
Nc1ncc(-c2ccc(NC(=O)c3cccc(I)c3)cc2)[nH]1	–	–	≥ 200 µM	–	–
Cl.Nc1ncc(-c2ccc(NC(=O)c3ccc(Cl)cc3Cl)cc2)[nH]1	–	–	≥ 200 µM	8	–
Cl.Nc1nc(-c2ccc(NC(=O)c3ccc(Cl)c(C(F)(F)F)c3)cc2F)c[nH]1	2 µg/mL	–	50 µM	–	MIC [9]: 0.25 µg/mL; fold change (FC) [10]: 4; MIC [11]: 8 µg/mL; fold change (FC) [8]: 16
Nc1nc(-c2ccc(NC(=O)c3ccc(C(F)(F)F)cc3)cc2)c[nH]1	–	–	≥ 200 µM	–	–
Cl.Nc1ncc(-c2ccc(NC(=O)c3cc(F)cc(F)c3)cc2)[nH]1	–	–	≥ 200 µM	8	MIC [6]: 4 µg/mL
Cl.Nc1nc(-c2ccc(NC(=O)c3cc(Cl)cc(Cl)c3)cc2Cl)c[nH]1	8 µg/mL	0.5 µg/mL	> 200 µM	64	fold change (FC) [7]: 64; MIC [6]: 0.5 µg/mL; fold change (FC) [8]: 4
Cl.Nc1nc(-c2ccc(NC(=O)Nc3ccc(Cl)c(Cl)c3)cc2)c[nH]1	0.25 µg/mL	0.0625 µg/mL	100 µM	>=512	fold change (FC) [7]: >=512; MIC [9]: 0.125 µg/mL; MIC [12]: 8 µg/mL; fold change (FC) [10]: 16; MIC [6]: 0.0625 µg/mL; MIC [11]: 2 µg/mL; fold change (FC) [13]: 4
Cl.Nc1ncc(-c2ccc(NC(=O)c3ccc(Cl)c(Cl)c3)cc2)[nH]1	4 µM	0.5 µM	100 µM	64	–
Nc1nc(-c2ccc(NC(=O)c3ccccc3)cc2)c[nH]1	–	–	≥ 200 µM	–	–
Cl.Nc1nc(-c2ccc(NC(=O)c3ccc(C(F)(F)F)c(Cl)c3)cc2F)c[nH]1	8 µg/mL	–	50 µM	–	MIC [9]: 0.25 µg/mL; fold change (FC) [10]: 2; MIC [11]: 16 µg/mL; fold change (FC) [8]: 4
Cl.Nc1nc(-c2ccc(NC(=O)c3cc(Cl)cc(Cl)c3)c(F)c2)c[nH]1	–	–	> 200 µM	4	MIC [6]: 16 µg/mL
Cl.Nc1nc(-c2ccc(NC(=O)c3cc(C(F)(F)F)cc(C(F)(F)F)c3)cc2)c[nH]1	–	–	50 µM	–	MIC [9]: 8 µg/mL
Nc1nc(-c2ccc(NC(=O)c3c(Cl)cc(Cl)cc3Cl)cc2)c[nH]1	32 µM	16 µM	100 µM	–	MIC [14]: 8 µM

Structure (SMILES)	MIC [1]	MIC [2]	MIC [4]	fold change (FC) [5]	also measured
Nc1nc(-c2ccc(NC(=O)c3cccc(F)c3)cc2)c[nH]1	–	–	≥ 200 µM	–	–
Cl.Nc1nc(-c2c(F)cc(NC(=O)c3cc(Cl)cc(Cl)c3)cc2F)c[nH]1	–	8 µg/mL	–	–	MIC [6]: 4 µg/mL; fold change (FC) [8]: 2
Nc1nc(-c2ccc(NC(=O)c3cccc(Cl)c3)cc2)c[nH]1	16 µM	4 µM	≥ 200 µM	–	–
Nc1nc(-c2ccc(NC(=O)c3c(F)c(F)c(F)c(F)c3F)cc2)c[nH]1	–	–	≥ 200 µM	–	–
Nc1nc(-c2ccc(NC(=O)c3cc(Cl)c(Br)c(Cl)c3)cc2)c[nH]1	0.25 µM	0.25 µM	≥ 200 µM	–	–
Cc1cc(NC(=O)c2cc(Cl)cc(Cl)c2)ccc1-c1c[nH]c(N)n1.Cl	8 µg/mL	0.5 µg/mL	> 200 µM	64	fold change (FC) [7]: 64; MIC [6]: 0.5 µg/mL; fold change (FC) [8]: 4
Cl.Nc1nc(-c2ccc(NC(=O)Nc3cc(Cl)cc(Cl)c3)cc2)c[nH]1	–	–	25 µM	–	MIC [12]: 8 µg/mL; fold change (FC) [10]: 64; MIC [11]: 0.5 µg/mL; fold change (FC) [13]: 4
Nc1nc(-c2ccc(NC(=O)c3cc(F)c(F)c(F)c3)cc2)c[nH]1	32 µM	8 µM	100 µM	–	–
Cc1cc(-c2c[nH]c(N)n2)ccc1NC(=O)c1cc(Cl)cc(Cl)c1.Cl	16 µg/mL	1 µg/mL	> 200 µM	64	fold change (FC) [7]: 32; fold change (FC) [8]: 2
Cl.Nc1nc(-c2ccc(NC(=O)c3cc(Cl)cc(Cl)c3)cc2F)c[nH]1	0.5 µg/mL	0.25 µg/mL	> 200 µM	128	MIC [12]: 8 µg/mL; fold change (FC) [10]: 8; MIC [6]: 0.5 µg/mL; MIC [11]: 4 µg/mL; fold change (FC) [13]: 4; fold change (FC) [8]: 64
Nc1ncc(-c2ccc(NC(=O)c3ccc(I)cc3)cc2)[nH]1	–	–	≥ 200 µM	–	–
Cl.Nc1nc(-c2ccc(NC(=O)c3cc(Br)cc(Br)c3)cc2F)c[nH]1	16 µg/mL	8 µg/mL	> 200 µM	16	fold change (FC) [7]: 4; MIC [6]: 2 µg/mL; fold change (FC) [8]: 2
Nc1nc(-c2ccc(NC(=O)c3cccc(Br)c3)cc2)c[nH]1	–	–	≥ 200 µM	–	–
Cc1ccc(C(=O)Nc2ccc(-c3c[nH]c(N)n3)cc2)cc1F	1 µM	–	50 µM	–	MIC [12]: 16 µM
Cc1cc(C)cc(C(=O)Nc2ccc(-c3c[nH]c(N)n3)cc2)c1.Cl	–	–	≥ 200 µM	–	MIC [6]: 2 µg/mL; Activity [3]: inactive
CC[C@H]1OC(=O)[C@H](C)[C@@H](O[C@H]2C[C@@](C)(OC)[C@@H](O)[C@H](C)O2)[C@H](C)[C@@H](O[C@@H]2O[C@H](C)C[C@H](N(C)C)[C@H]2O)[C@](C)(OC)C[C@@H](C)C(=O)[C@H](C)[C@@H](O)[C@]1(C)O [CLARITHROMYCIN]	–	–	–	–	MIC [15]: ≥ 128 µg/mL; MIC [16]: 512 µg/mL; MIC [17]: 512 µg/mL
Cl.Nc1ncc(-c2ccc(NC(=O)c3cccc(Cl)c3Cl)cc2)[nH]1	–	–	≥ 200 µM	4	–
Nc1nc(-c2ccc(NC(=O)c3ccc(F)cc3)cc2)c[nH]1	–	–	≥ 200 µM	–	–
Nc1ncc(-c2ccc(NC(=O)c3cc(Br)cc(Br)c3)cc2)[nH]1	–	–	–	–	fold change (FC) [18]: 16; MIC [19]: 100 µM; MIC [20]: 2 µg/mL; fold change (FC) [21]: 128; MIC [22]: 0.25 µg/mL
Cc1ccc(C(=O)Nc2ccc(-c3c[nH]c(N)n3)cc2)cc1Cl	–	–	25 µM	–	MIC [12]: 16 µM
